Target: Coagulation factor X (Homo sapiens, UniProt P00742)
Test: Inhibition of human factor Xa using Z-D-Arg-Gly-Arg-pNA.2HCl as substrate preincubated for 15 mins followed by substrate addition by UV absorption analysis

Coagulation factor X, sequence (P00742 41-179 limits assumed): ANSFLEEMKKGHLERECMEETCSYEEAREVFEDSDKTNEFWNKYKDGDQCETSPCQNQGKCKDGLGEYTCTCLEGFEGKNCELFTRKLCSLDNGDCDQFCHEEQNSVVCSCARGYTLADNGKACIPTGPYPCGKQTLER
Coagulation factor X, sequence (P00742 235-488 limits assumed): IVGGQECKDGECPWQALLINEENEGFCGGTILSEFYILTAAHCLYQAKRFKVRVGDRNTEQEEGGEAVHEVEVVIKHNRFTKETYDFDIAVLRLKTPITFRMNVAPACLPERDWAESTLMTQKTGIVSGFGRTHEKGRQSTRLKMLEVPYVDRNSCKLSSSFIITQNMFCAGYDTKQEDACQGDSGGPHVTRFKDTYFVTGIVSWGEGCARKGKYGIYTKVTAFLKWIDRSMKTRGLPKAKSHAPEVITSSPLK

For `CC1(C)OC[C@@H]([C@]2(C)C=C3CC[C@@H]4[C@](C)(CO)C[C@@H](O)C[C@@]4(C)[C@@H]3CC2)O1`, the IC50 was 7.2 µM.

Work on `C[C@@]1(CO)C[C@@H](O)C[C@@]2(C)C3=C(CC[C@H]12)[C@H]1OC[C@H](O)[C@@]1(C)CC3` yielded an IC50 of 27.9 µM.

`C[C@]12CC[C@@H]3[C@](CC[C@@H]4[C@](C)(CO)C[C@@H](O)C[C@]43C)(C1)O[C@H]2CO` gave an IC50 of 6.1 µM.

Work on `C[C@]12CC[C@@H]3[C@](CC[C@@H]4[C@](C)(CO)C[C@@H](O)C[C@]43C)(C1)OC2=O` yielded an IC50 of 1.7 µM.

`C[C@@]1(CO)C=C2CC[C@@H]3[C@](C)(CO)C[C@@H](O)C[C@@]3(C)[C@@H]2CC1` gave an IC50 of 0.96 µM.

With `C[C@@]1(CO)C[C@@H](O)C[C@@]2(C)[C@@H]3CC[C@@]4(C)[C@H](OC[C@@H]4O)C3=CC[C@H]12` the IC50 was 17.8 µM.

`C[C@@]1(CO)C[C@@H](O)C[C@@]2(C)[C@@H]3CC[C@](C)([C@@H](O)CO)C=C3CC[C@H]12` [KIRENOL] gave an IC50 of 2.5 µM.

Work on `C[C@@]1(CO)C[C@@H](O)C[C@@]2(C)[C@@H]3CC[C@](C)(C(=O)O)C=C3CC[C@H]12` yielded an IC50 of 0.22 µM.

`C[C@]12CC[C@@H]3[C@](CC[C@@H]4[C@](C)(CO)C[C@@H](O)C[C@]43C)(C1)OC2` was tested, and the IC50 was 7.4 µM.

`C[C@@]1(CO)C[C@@H](O)C[C@]2(C)[C@@H]1CC[C@@]13O[C@H](CO)[C@@](C)(CC[C@@H]21)[C@H]3Br` was tested, and the IC50 was 7.9 µM.

Work on `CC1(C)OC[C@@H]([C@@]2(C)CC[C@@H]3C4(CC[C@@H]5[C@](C)(CO)C[C@@H](O)C[C@@]35C)OC42)O1` (some centres not stated) yielded an IC50 of 18.5 µM.

For `C[C@@]1(CO)C[C@@H](O)C[C@]2(C)[C@@H]1CC[C@@]13O[C@@H](CO)[C@@](C)(CC[C@@H]21)[C@H]3Br`, the IC50 was 4.7 µM.
